# Values joined by “and” are separate entries in the source; they are usually repeats but may differ in a detail not shown here. Equal entries are not always repeated. Where two headings read alike, the source gives them in different places.
# B1: rCYP2C9 (Homo sapiens) (protein)
# chain: MDSLVVLVLCLSCLLLLSLWRQSSGRGKLPPGPTPLPVIGNILQIGIKDISKSLTNLSKVYGPVFTLYFGLKPIVVLHGYEAVKEALIDLGEEFSGRGIFPLAERANRGFGIVFSNGKKWKEIRRFSLMTLRNFGMGKRSIEDRVQEEARCLVEELRKTKASPCDPTFILGCAPCNVICSIIFHKRFDYKDQQFLNLMEKLNENIKILSSPWIQICNNFSPIIDYFPGTHNKLLKNVAFMKSYILEKVKEHQESMDMNNPQDFIDCFLMKMEKEKHNQPSEFTIESLENTAVDLFGAGTETTSTTLRYALLLLLKHPEVTAKVQEEIERVIGRNRSPCMQDRSHMPYTDAVVHEVQRYIDLLPTSLPHAVTCDIKFRNYLIPKGTTILISLTSVLHDNKEFPNPEMFDPHHFLDEGGNFKKSKYFMPFSAGKRICVGEALAGMELFLFLTSILQNFNLKSLVDPKNLDTTPVVNGFASVPPFYQLCFIPV
# B2: rCYP2C19 (Homo sapiens) (protein)
# chain: MDPFVVLVLCLSCLLLLSIWRQSSGRGKLPPGPTPLPVIGNILQIDIKDVSKSLTNLSKIYGPVFTLYFGLERMVVLHGYEVVKEALIDLGEEFSGRGHFPLAERANRGFGIVFSNGKRWKEIRRFSLMTLRNFGMGKRSIEDRVQEEARCLVEELRKTKASPCDPTFILGCAPCNVICSIIFQKRFDYKDQQFLNLMEKLNENIRIVSTPWIQICNNFPTIIDYFPGTHNKLLKNLAFMESDILEKVKEHQESMDINNPRDFIDCFLIKMEKEKQNQQSEFTIENLVITAADLLGAGTETTSTTLRYALLLLLKHPEVTAKVQEEIERVIGRNRSPCMQDRGHMPYTDAVVHEVQRYIDLIPTSLPHAVTCDVKFRNYLIPKGTTILTSLTSVLHDNKEFPNPEMFDPRHFLDEGGNFKKSNYFMPFSAGKRICVGEGLARMELFLFLTFILQNFNLKSLIDPKDLDTTPVVNGFASVPPFYQLCFIPV
# B3: rCYP1A2 (Homo sapiens) (protein)
# chain: MALSQSVPFSATELLLASAIFCLVFWVLKGLRPRVPKGLKSPPEPWGWPLLGHVLTLGKNPHLALSRMSQRYGDVLQIRIGSTPVLVLSRLDTIRQALVRQGDDFKGRPDLYTSTLITDGQSLTFSTDSGPVWAARRRLAQNALNTFSIASDPASSSSCYLEEHVSKEAKALISRLQELMAGPGHFDPYNQVVVSVANVIGAMCFGQHFPESSDEMLSLVKNTHEFVETASSGNPLDFFPILRYLPNPALQRFKAFNQRFLWFLQKTVQEHYQDFDKNSVRDITGALFKHSKKGPRASGNLIPQEKIVNLVNDIFGAGFDTVTTAISWSLMYLVTKPEIQRKIQKELDTVIGRERRPRLSDRPQLPYLEAFILETFRHSSFLPFTIPHSTTRDTTLNGFYIPKKCCVFVNQWQVNHDPELWEDPSEFRPERFLTADGTAINKPLSEKMMLFGMGKRRCIGEVLAKWEIFLFLAILLQQLEFSVPPGVKVDLTPIYGLTMKHARCEHVQARLRFSIN
# Assays:
# CYP3A = conditions: ketoconazole coadministered, literature value, cited from earlier work
# rCYP1A2 = rCYP1A2 (Homo sapiens, UniProt P05177)
# Experimental: (§1) The samples were analyzed using an LC-MS/MS system consisting of microflow LC and Xevo-TQ-XS MS systems (Waters, Milford, MA). An Acquity UPLC HSS T3 C18 column ([…]) equipped with a guard column (Vanguard precolumn, […], 2.1 × 5 mm) was used for the analysis. […] The mass spectrometer was operated in multiple reaction monitoring (MRM) and positive ionization modes with a cone voltage of 30 V using an electrospray ionization source.
# (§2) The relative expression factor (REF) for the rCYPs and rCES was calculated by using eq . 2 REF=CYPorCEScontentinpooledHLM(permgprotein)/CYPorCES content in the recombinant system (per mg protein)
# (§3) 3 Rateofmetabolism=Vmax×S/Km+S
# (§4) The CLint, total for each isoform was then multiplied with the respective REF values, and fraction metabolized (f m) is calculated as shown in eq . 4 fm,CYPi=ScaledCLint,total,2−oxo−clopidogrelCYPi/ScaledactivityCYPall×100
# rCYP2B6 = rCYP2B6 (Homo sapiens, UniProt P20813)
# Experimental: as §1, §2, §3, §4
# rCYP2C19 = rCYP2C19 (Homo sapiens, UniProt P33261)
# Experimental: as §1, §2, §3, §4
# rCYP2C9 = rCYP2C9 (Homo sapiens, UniProt P11712)
# Experimental: as §1, §2, §3, §4
# rCES1 = rCES1 (Homo sapiens, UniProt P23141); conditions: rCES1 0.1 mg/mL, clopidogrel 0.9–240 μM, 30 min, 37 °C
# Experimental: (§5) The samples were analyzed using an LC-MS/MS system consisting of microflow LC and Xevo-TQ-XS MS systems (Waters, Milford, MA). An Acquity UPLC HSS T3 C18 column (1.8 mm, 1 mm × 100 × 100 mm) equipped with a guard column (Vanguard precolumn, 1.8 mm, 2.1 × 5 mm) was used for the analysis. […] The mass spectrometer was operated in multiple reaction monitoring (MRM) and positive ionization modes with a cone voltage of 30 V using an electrospray ionization source.
# [1] = pooled fractions 0.5 mg/mL, clopidogrel 150 μM
# Experimental: The protein concentration was maintained at 0.5 mg/mL, and all incubations were conducted in triplicates in a water bath shaker at 37 °C with incubation volumes of 100 μL each. […] Samples were centrifuged at 10,000g for 5 min (4 °C), and the supernatants were collected and diluted 10-fold using a 75:25 (0.1% formic acid in ACN/0.1% formic acid in water) solution before being transferred to an LC-MS vial for analysis.
# as §5
# [2] = following oral administration; literature value; cited from earlier work
# CES1 G143E variant = conditions: second cited study; literature value; cited from earlier work
# not read = substrate: COC(=O)[C@H](c1ccccc1Cl)N1CCc2sccc2C1; assay: not read; conditions: 5 min, 37 °C
# [3] = other: rCYP2C9, clopidogrel 0.3–160 μM
# [4] = other: rCYP2C19, clopidogrel 0.3–160 μM
# [5] = other: rCYP1A2, clopidogrel 0.3–160 μM
# rCYP2B6, sequence (P20813 whole entry): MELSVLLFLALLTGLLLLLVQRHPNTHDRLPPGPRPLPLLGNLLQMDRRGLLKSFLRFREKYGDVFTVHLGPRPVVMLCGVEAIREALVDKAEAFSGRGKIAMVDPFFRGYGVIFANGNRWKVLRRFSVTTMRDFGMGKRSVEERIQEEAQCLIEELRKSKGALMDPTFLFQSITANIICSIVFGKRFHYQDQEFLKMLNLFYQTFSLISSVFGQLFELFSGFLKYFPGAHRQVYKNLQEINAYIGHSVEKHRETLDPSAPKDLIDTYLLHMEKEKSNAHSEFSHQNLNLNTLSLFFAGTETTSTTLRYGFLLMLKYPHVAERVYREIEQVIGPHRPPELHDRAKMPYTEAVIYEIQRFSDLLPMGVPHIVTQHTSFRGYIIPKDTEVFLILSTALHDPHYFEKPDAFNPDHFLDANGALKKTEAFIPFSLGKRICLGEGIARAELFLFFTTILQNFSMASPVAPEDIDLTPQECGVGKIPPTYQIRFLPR
# rCES1, sequence (P23141 18-567): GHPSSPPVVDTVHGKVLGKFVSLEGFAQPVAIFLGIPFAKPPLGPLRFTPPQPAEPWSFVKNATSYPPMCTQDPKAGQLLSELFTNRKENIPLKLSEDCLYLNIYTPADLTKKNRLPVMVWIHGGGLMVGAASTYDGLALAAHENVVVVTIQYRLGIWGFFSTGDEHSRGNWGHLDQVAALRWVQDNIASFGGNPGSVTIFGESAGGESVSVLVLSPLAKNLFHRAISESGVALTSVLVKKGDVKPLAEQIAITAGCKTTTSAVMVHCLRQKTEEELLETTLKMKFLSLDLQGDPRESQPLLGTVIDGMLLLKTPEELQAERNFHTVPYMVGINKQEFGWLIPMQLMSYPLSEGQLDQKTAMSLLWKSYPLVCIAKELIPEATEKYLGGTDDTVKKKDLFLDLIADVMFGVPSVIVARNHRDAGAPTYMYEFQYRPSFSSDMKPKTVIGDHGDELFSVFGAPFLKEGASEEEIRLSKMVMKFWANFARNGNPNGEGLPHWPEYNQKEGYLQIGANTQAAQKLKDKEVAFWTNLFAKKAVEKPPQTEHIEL
molecule,measurement,setting,value
"CC(=O)N1CCN(c2ccc(OCC3COC(Cn4ccnc4)(c4ccc(Cl)cc4Cl)O3)cc2)CC1 (centres unmarked) [Ketoconazole, ketoconazole]",Reduction of AUC0–24 of clopidogrel active metabolite,CYP3A; after 75 mg clopidogrel maintenance dose (MD),29%
same,Reduction of AUC0–24 of clopidogrel active metabolite,CYP3A; after 300 mg clopidogrel loading dose (LD),22%
same,Decrease of C max of the active metabolite,CYP3A; following LD,48%
same,Decrease of C max of the active metabolite,CYP3A; following MD,61%
COC(=O)[C@H](c1ccccc1Cl)N1CCc2sccc2C1 [clopidogrel],f m,rCYP1A2; fraction of 2-oxo-clopidogrel formation by CYP1A2,0.6%
same,K m of 2-oxo-clopidogrel formation,rCYP1A2; rCYP1A2,17.0 µM
same,CLint,rCYP2B6,15.8 μL/mg protein/min
same,CLint *REF,rCYP2B6,0.09 μL/mg protein/min
same,f m,rCYP2B6,1.5%
same,CLint (V max/K m),rCYP2B6; recombinant enzyme,1.8 μL/pmol P450/min
same,f m,rCYP2C19; fraction of 2-oxo-clopidogrel formation by CYP2C19,0.1%
same,K m of 2-oxo-clopidogrel formation,rCYP2C19; rCYP2C19,13.8 ± 5.5 µM and 13.8 µM
same,f m,rCYP2C9; fraction of 2-oxo-clopidogrel formation by CYP2C9,40.3%
same,K m of 2-oxo-clopidogrel formation,rCYP2C9; rCYP2C9,20.6 µM
same,K m for CCA formation,rCES1,14.92 ± 4.8 µM
same,CCA formation rate normalized with CES1 content (pmol/min/pmol CES1) in HLS9 versus HLM,[1],two-fold higher
same,Rate of formation of 2-oxo-clopidogrel in HLM (pmol/min/mg protein) versus HLS9,[1],two-fold higher
same,Rate of formation of CCA in HLM (pmol/min/mg protein) versus HLS9,[1],two-fold higher
same,Fraction of the drug absorbed,[2],approximately 50%
same,Increase in platelet aggregation inhibition in G143E carriers compared to noncarriers,CES1 G143E variant,19%
B1,kcat,not read; [3],0.387 s⁻¹
same,kcat/Km,not read; [3],1.1 μL/pmol P450/min
B2,kcat,not read; [4],0.36 s⁻¹
same,kcat/Km,not read; [4],1.6 μL/pmol P450/min
B3,kcat,not read; [5],0.258 s⁻¹
same,kcat/Km,not read; [5],0.9 μL/pmol P450/min

# Source: publication PMC12673578 (Molecular Pharmaceutics, 2025)
